# Entries after “also recorded” stand apart in the source; their conditions may differ.
# Experiments:
# [1] = system: EJ28; experiment: SRB cell growth assay, 72 h; assay type: cell-based, human; settings: single agent
# [2] = system: human colon carcinoma HCT 116; experiment: HCT116 tumor growth in fluorescence molecular tomography study; assay type: in vivo, SCID mice; settings: NS
# [3] = system: resting Peripheral Blood Mononuclear Cells, PBMC; experiment: SRB cell growth assay, 72 h, non-proliferating cells; assay type: cell-based
# Procedure: Cell lines were selected to represent 17 different indications with many different genetic variations and biochemical characteristics. In addition, the study included resting Peripheral Blood Mononuclear Cells, PBMC, as a model for non-proliferating cells.
# Cell growth and treatment were performed in 96-well microtitre plates CELLSTAR® (Greiner Bio-One, Germany). Cells harvested from exponential phase cultures by trypsinization were plated in 150 μl of media at optimal seeding densities. The optimal seeding densities for each cell line were determined to ensure exponential growth for the duration of the experiment. All cells growing without anticancer agents were sub-confluent by the end of the treatment as determined by visual inspection. […]
# After treatment, cells were precipitated by addition of 10% TCA. […] Measurement of optical density was performed at 560 nm on a Victor 2 plate reader (Perkin Elmer, Germany). […]
# Using these measurements, cellular responses can be calculated for incomplete inhibition of cell growth (GI), complete inhibition of cell growth (T GI) and net loss of cells (LC) due to compound activity. […] Similar to IC90, calculated GI90 values are also reported for all compounds tested. TGI was calculated from Ti=Tz. […] It was calculated as 100×[(Ti−Tz)/Tz]=−50. […]
# [4] = system: PANC1; experiment: SRB cell growth assay, 72 h; assay type: cell-based, human; settings: single agent
# [5] = system: A673; experiment: SRB cell growth assay, 72 h; assay type: cell-based, human; settings: single agent; for activity (cell growth inhibition): up to 50 μM
# [6] = system: human primary colon tumors CR-LRB-009C; experiment: antitumor activity against subcutaneous CR-LRB-009C xenografts; assay type: in vivo; settings: for tolerability: as single agents or used in combination
# Procedure: The human primary colon carcinoma CR-LRB-009C tumor model was established by implanting (SC) small tumor fragments and was maintained in SCID female mice using serial passages.
# Treatments were administered on measurable tumors. […] Mice were checked daily, and adverse clinical reactions noted.
# Animal body weights included the tumor weight.
# The primary efficacy end points are ΔT/ΔC, percent median regression, partial and complete regressions (PR and CR). Statistical analyses were performed on SAS system release 8.2 for SUN4 via Everstat V5 software and SAS 9.2 software. A probability less than 5% (p<0.05) was considered as significant.
# [7] = system: DU145; experiment: SRB cell growth assay, 72 h; assay type: cell-based, human; settings: single agent
# [8] = system: A549; experiment: SRB cell growth assay, 72 h; assay type: cell-based, human; settings: for GI50: Homo sapiens
# [9] = system: human pancreatic MiaPaCa-2; experiment: antitumor activity against subcutaneous MiaPaCa-2 xenografts; assay type: in vivo, nude mice; settings: 21 days
# Procedure: The human pancreatic cancer cell line MiaPaCa-2 (American Type Culture Collection, Manassas Va.), was cultured in MEM medium containing 10% fetal bovine serum, 1% essential amino acid, 1% sodium pyruvate (Life Technologies, Carlsbad, Calif.). […] Cells were re-suspended in PBS (Life Technologies, Carlsbad, Calif.) and then mixed 1:1 with Matrigel (BD Biosciences, San Jose, Calif.). Cells were stored at 4° C. until implantation. MiaPaCa-2 cells (10×10^6 in a 200 μl PBS:Matrigel (1:1) suspension) were subcutaneously injected into the right flank area of female nude (Crl:NU-Foxn1nu) mice (6-8 weeks old, Charles River Laboratories, Wilmington, Mass.). All mice in this study were used according to the guidelines approved by the EMD-Serono Institutional Care and Animal Use Committee (IACUC), #07-003. Developing tumors located in the right flank area of female nude mice were measured over time with digital calipers. […] The remaining tumor-bearing mice were randomized into seven experimental groups (n=9), so that each group had the same mean tumor volume. […] The treatments began on the seventh day following implantation of the Miapaca-2 cells, which was designated as Day 0 for data evaluation purposes. […] Body weights and tumor volumes were assessed twice per week post treatment initiation. […] Efficacy was determined by analyzing tumor volumes and the percent ΔT/ΔC (% ΔT/ΔC). Tumor volume was determined by using the tumor length (1) and width (w) measurements and calculating the volume with the equation 1*w^2/2. The length was measured along the longest axis of the tumor and width was measured perpendicular to that length. The mean percent of actual tumor growth inhibited by the treatments was calculated as follows: [% ΔT/ΔC=(([…]))×100%], where TV=tumor volume, f=final, i=initial and Ctrl=control group. Tolerability was assessed by regarding percent body weight difference during the treatment period. Percent body weight difference was calculated as follows: [% Body weight difference=(BWc-BWi)/BWi×100%], where BW=body weight, c=current, i=initial.
# [10] = system: MDAMB468; experiment: SRB cell growth assay, 72 h; assay type: cell-based, human
# Procedure: Cell growth and treatment were performed in 96-well microtitre plates CELLSTAR® (Greiner Bio-One, Germany). Cells harvested from exponential phase cultures by trypsinization were plated in 150 μl of media at optimal seeding densities. The optimal seeding densities for each cell line were determined to ensure exponential growth for the duration of the experiment. All cells growing without anticancer agents were sub-confluent by the end of the treatment as determined by visual inspection.
# 150 μl of cells, after a 24-hour pre-growth period, were treated by mixing with 50 μl of the compound containing media (resulting in a final DMSO concentration of 0.1%). The cells were allowed to grow at 37° C. for 72 hours. In addition, all experiments contained a few plates with cells that were processed for measurement immediately after the 24 hours recovery period. These plates contained information about the cell number that existed before treatment, at time zero, and served to calculate the cytotoxicity.
# After treatment, cells were precipitated by addition of 10% TCA. Prior to fixation, the media was aspirated as described. After an hour of incubation at 4° C., the plates were washed two times with 400 μl of deionized water. Cells were then stained with 100 μl of a 0.08% wt/v SRB. The plates were allowed to sit for at least 30 min. and washed six times with 1% acetic acid to remove unbound stain. The plates were left to dry at room temperature and bound SRB was solubilized with 100 μl of 10 mM Tris base. Measurement of optical density was performed at 560 nm on a Victor 2 plate reader (Perkin Elmer, Germany). The SRB values for A375 and H460 cell lines were near to saturation (2.5 OD units) due to the high protein content of these cells, but not cell confluence. The measurements for these cells were performed at 520 nm instead of 560 nm.
# Using these measurements, cellular responses can be calculated for incomplete inhibition of cell growth (GI), complete inhibition of cell growth (T GI) and net loss of cells (LC) due to compound activity. […] This is the drug concentration causing a 50% reduction compared to the net protein increase in control cells during the drug incubation period. In other words, GI50 is IC50 corrected for time zero. Similar to IC90, calculated GI90 values are also reported for all compounds tested. TGI was calculated from Ti=Tz. […] It was calculated as 100×[(Ti−Tz)/Tz]=−50. However, due to 72 hours treatment, low cell seeding density was required and LC50 could rarely be achieved.
# [11] = (2b) 20 mg/kg PO daily days 11-21
# [12] = (1) 20 mg/kg PO daily days 11-21
structure (smiles),measurement,setting,value
"CCn1c(=O)c(-c2ccn[nH]2)cc2c(C)nc(N)nc21 [Compound (2b), 2-amino-8-ethyl-4-methyl-6-(1H-pyrazol-5-yl)pyrido[2,3-d]pyrimidin-7(8H)-one]",z-score MSC0765,[1],1.25
same,ΔT/ΔC at the end of study,[2]; (2b) 20 mg/kg oral daily day 11 to day 17,80%
same,activity in resting (arrested) PBMC,[3],no activity
same,z-score MSC0765,[4],1.16
same,z-score MSC0765,[5],0.96
same,activity (cell growth inhibition),[5],non-sensitive
same,Average body weight change in % per mouse at nadir,[6]; [11],−7.4 (19) %
same,Drug death,[6]; [11],0/7
same,Median ΔT/ΔC in % day 21,[6]; [11],51%
same,Regressions Complete,[6]; [11],0/7
same,Regressions Partial,[6]; [11],0/7
same,tolerability,[6],"tolerated, inducing some BWL but not reaching toxicity"
same,z-score MSC0765,[7],−0.05
same,GI50,[8],1150 nM
same,z-score MSC0765,[8]; single agent,−0.20
same,% ΔT/ΔC,"[9]; XL-765 30 mg/kg po QD, 30 mg/kg",77.0%
same,GI50,"[10]; Homo sapiens, MDA-MB-468, most sensitive, z-score <−1.5",< 500 nM
"O=C(NC[C@H](O)CO)c1ccncc1Nc1ccc(I)cc1F [Compound (1), N—((S)-2,3-dihydroxypropyl)-3-(2-fluoro-4-iodo-phenylamino)isonicotinamide]",z-score MSC6369,[1],−0.68
same,ΔT/ΔC at the end of study,[2]; (1) 10 mg/kg oral daily day 11 to day 17,40%
same,activity in resting (arrested) PBMC,[3],no activity
same,z-score MSC6369,[4],3.00
same,activity (cell growth inhibition),[4]; up to 50 μM,minimal activity
same,z-score MSC6369,[5],3.00
same,activity (cell growth inhibition),[5],minimal activity; also recorded: non-sensitive
same,Average body weight change in % per mouse at nadir,[6]; [12],−7.7 (20) %
same,Drug death,[6]; [12],0/7
same,Regressions Complete,[6]; [12],0/7
same,Regressions Partial,[6]; [12],0/7
same,Median ΔT/ΔC in % day 21,"[6]; (1) 20 mg/kg PO daily days 11-21, 20 mg/kg",53%
same,tolerability,[6],"tolerated, inducing some BWL but not reaching toxicity"
same,z-score MSC6369,[7],0.73
same,GI50,[8],300 nM
same,z-score MSC6369,[8]; single agent,−0.11
same,% ΔT/ΔC,"[9]; AS703026 5 mg/kg po QD, 5 mg/kg",56.2%
same,activity (cell growth inhibition),"[10]; single agent, up to 50 μM",minimal activity

# — US20140024653A1, “COMPOSITIONS AND METHODS FOR TREATING CANCER USING PI3K INHIBITOR AND MEK INHIBITOR” (priority 2011, published 2014)
